According to patent publication US9814732B2, “Ulipristal acetate for prevention and treatment of breast tumors” (LABORATOIRE HRA-PHARMA, priority 2012, dated 2017):

Tests used:
[1] = test system: PR target genes (FASN, cyclin A, BCL2, ALPL); assay: qRT-PCR mRNA expression of PR target genes in HBE cells; assay type: cell-based, human; settings: P and/or UPA 100 nM, E2 10 nM
Protocol: (§1) After seeding, cells were cultured for 24 h in serum and phenol red free medium. Then treatments were carried out in a phenol red free medium containing 5% dextran-charcoal stripped serum. Cells were treated with P or DEX (100 nM), alone or in combination with UPA, RU (1 nM to 1 μM) or CDB-3877 (100 nM). Control cells were treated with ethanol, at […] 1:1000 final ethanol concentration alone as vehicle or E2 (10 nM).
(§2) Total RNA was extracted using TriZOL Reagent (Invitrogen, Cergy-Pontoise, France).
(§3) 2 μg of total RNA was subjected to reverse transcription (RT) using random primers for 1 h at 37° C. 2 μl of RT product was diluted (1:10) and subjected to quantitative PCR using sequence specific primers (300 nM) and Brillant SYBR GREEN QPCR master mix (Fermentas, Saint-Rémy-lès-Chevreuse, France) on an Mx3000P apparatus (Agilent Technologies, Massy, France). Conditions were 1 cycle at 95° C. for 10 min followed by 40 cycles at 95° C. for 30 sec, 60° C. for 1 min and 72° C. for 30 sec. Gene expression values were normalized to the housekeeping gene 36B4. Time of steroid treatment was chosen to get the optimal stimulation for a given gene. ALPL and G0S8 mRNA were analyzed after 6 h of treatment. IEX-1, FASN, and BCL2 were analyzed after 24 h of treatment. Cyclin A mRNA was analyzed after 24 h for GR responses or 48 h for PR responses.

[2] = Hormone concentrations in serum of pellet-treated athymic mice; assay type: in vivo; settings: female, NMRI nu/nu athymic, mouse, other: steroid pellets grafted onto the neck, 20 mg pellet (P from day 14, UPA from day 1), day 28, read-out: concentration in mice serum (mean±SEM)
Protocol: Four weeks old ovariectomized female NMRInu/nu 20 athymic mice were purchased from Janvier laboratory (Le Genest Saint Isle, France). Breast tissues samples were obtained from 6 women (aged 29-42 years). Human mammary gland tissue was cut into 2×2×2 mm fragments and 4 fragments were then subcutaneously xenografted onto the back of 4 mice per group. Four treatment groups were performed: control, E2, E2+P and E2+P+UPA. Treatments were administered by grafting steroid pellets onto the neck of each mouse. The experimental conditions were initially determined by using a dose range of hormones mixed with cholesterol into the pellets. Blood sample assays were performed after 2 weeks and 4 weeks of treatment to measure plasmatic hormonal concentrations. Finally, the dose of 0.3 mg for E2 and 20 mg for P and UPA were used, as it provides the expected blood concentrations. For the control groups, pellets containing only cholesterol were used. To reproduce menstrual cycle conditions, mice were grafted on the first day of experiment with cholesterol, E2 and/or UPA containing pellets and on the fourteen day with cholesterol or progesterone containing pellets in control and E2 groups, or in E+P and E2+P+UPA groups, respectively. Twenty eight days after the start of experiment, mice were sacrificed. Blood was collected for each mouse, and serum was frozen at −20° C. until hormone concentrations
Estradiol was measured by radioimmunoassay using Clinical Assays Estradiol-2 (Sorin Biomedica Diagnostics SpA, Saluggia, Italia). Progesterone levels were evaluated by UPLC-MSMS using Acquity UPLC and Quattro Premier XE (Waters, Milford Mass., USA).
UPA concentrations were measured using LC-MS/MS technique by MPI Research (State College, Pa., USA).

[3] = target: T1, PR (Homo sapiens, UniProt P06401); assay: MMTV-Luc reporter gene transactivation in HBE cells (MMTV-Luc alone); assay type: cell-based; settings: P 100 nM, p<0.05
T1 sequence (P06401 1-933): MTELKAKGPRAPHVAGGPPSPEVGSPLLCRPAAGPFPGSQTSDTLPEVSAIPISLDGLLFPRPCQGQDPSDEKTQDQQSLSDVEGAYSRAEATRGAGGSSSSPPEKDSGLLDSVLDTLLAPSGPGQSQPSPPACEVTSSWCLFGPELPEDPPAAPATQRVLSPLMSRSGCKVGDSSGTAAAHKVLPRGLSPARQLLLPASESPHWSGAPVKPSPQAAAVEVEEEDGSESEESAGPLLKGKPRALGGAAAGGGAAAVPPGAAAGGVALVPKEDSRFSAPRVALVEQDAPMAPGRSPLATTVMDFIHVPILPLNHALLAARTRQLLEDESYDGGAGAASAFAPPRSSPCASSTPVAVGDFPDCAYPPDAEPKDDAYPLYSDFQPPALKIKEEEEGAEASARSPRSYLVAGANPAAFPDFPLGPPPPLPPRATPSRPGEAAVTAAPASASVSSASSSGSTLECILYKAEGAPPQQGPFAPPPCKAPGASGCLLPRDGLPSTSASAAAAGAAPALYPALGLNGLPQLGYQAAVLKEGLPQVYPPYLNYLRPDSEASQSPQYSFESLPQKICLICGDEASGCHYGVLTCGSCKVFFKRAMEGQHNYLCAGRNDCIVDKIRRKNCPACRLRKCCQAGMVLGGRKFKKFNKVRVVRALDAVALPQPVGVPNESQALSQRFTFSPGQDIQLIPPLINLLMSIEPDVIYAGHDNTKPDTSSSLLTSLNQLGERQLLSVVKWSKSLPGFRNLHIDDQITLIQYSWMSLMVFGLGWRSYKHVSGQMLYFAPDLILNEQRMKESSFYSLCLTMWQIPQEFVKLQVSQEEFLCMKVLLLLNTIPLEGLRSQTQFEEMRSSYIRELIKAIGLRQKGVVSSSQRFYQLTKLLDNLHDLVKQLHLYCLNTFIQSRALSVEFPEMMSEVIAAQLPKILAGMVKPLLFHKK

[4] = test system: T-47D cells; assay: Tritiated thymidine incorporation (proliferation) in T-47D cells; assay type: cell-based, human; settings: 48 h, 100 nM
Protocol: as §1
(§4) After 24 h of hormonal treatment, cells were incubated with [methyl-1 3H] thymidine (Perkin Elmer, Courtaboeuf, France) for 48 h or 20 h for KBE or cancer cells, respectively at 37° C. After incubation cells were washed twice with PBS 1× and once with 5% trichloroacetic acid (TCA). Cells were incubated in 5% TCA for 15 min at 4° C. and lysed in NaOH 0.1 N for 30 min at 37° C. The total cell lysate was added to 5 ml of Ecolite scintillation liquid (MP biomedical, Illkirch, France) and radioactivity was counted with a β-counter HIDEX 300SL (ScienceTec, Courtaboeuf, France).

[5] = test system: PR target genes (FASN, cyclin A, BCL2, ALPL); assay: qRT-PCR mRNA expression of PR target genes in T-47D cells; assay type: cell-based, human; settings: P and/or UPA 100 nM
Protocol: as §1, §2, §3

[6] = test system: HBE cells; assay: Apoptosis, sub-G1 quantification by flow cytometry in HBE cells; assay type: cell-based, human; settings: 96 h, 100 nM
Protocol: as §1
(§5) After 96 h or 48 h of hormonal treatment, respectively, for HBE or MCF-7 and T-47D cells, cells were washed in PBS, matrix dissociated with accutase enzyme (PAA laboratory, Les Mureaux, France), and centrifuged 5 minutes at 1350 rpm. Cells were fixed and frozen at −20° C. in 70% ethanol. Before analysis, cells were washed in PBS and stained with 10 μg/ml propidium iodide in PBS (containing 0.835 U/ml RNase A) (Sigma, St Quentin Fallavier, France). For each sample at least 10 000 cells were counted in a BD LSR II flow cytometer (BD Biosciences, Le Pont de Claix, France). After gating out doublets and debris, cycle distribution was analyzed using the ModFit LT software (Verity Software House, USA).

[7] = test system: T-47D cells; assay: Apoptosis, sub-G1 quantification by flow cytometry in T-47D cells; assay type: cell-based, human; settings: 48 h, 100 nM
Protocol: as §1, §5

[8] = test system: HBE cells; assay: Tritiated thymidine incorporation (proliferation) in HBE cells; assay type: cell-based, human; settings: 96 h, 100 nM
Protocol: as §1, §4

concentration at 28 days [2]: 13.1 ± 1.14 ng/mL | luciferase expression (MMTV-Luc) [3]: 1.38±0.11 control fold induction
Compound: CC(=O)[C@H]1CC[C@H]2[C@@H]3CCC4=CC(=O)CC[C@]4(C)[C@H]3CC[C@]12C [P, progesterone]
BCL2 mRNA expression (PR response) ([1]; 24 h): decrease of BCL2 mRNA expression by P | FASN mRNA expression ([1]; 24 h): induction of FASN mRNA expression | cyclin A mRNA expression (PR response) ([1]; 48 h): down regulated cyclin A mRNA expression | cell proliferation ([3H] thymidine incorporation), compound alone [4]: anti-proliferative activity | ALPL mRNA expression ([5]; 6 h): strong P mediated induction of ALPL transcript | FASN mRNA expression ([5]; 24 h): induction of FASN mRNA expression | BCL2 mRNA expression (PR response) ([5]; 24 h, p<0.01): decrease of BCL2 mRNA expression by P | cyclin A mRNA expression (PR response) ([5]; 48 h): down regulated cyclin A mRNA expression | cell apoptosis (sub-G1 percentage), compound alone [6]: intense pro-apoptotic effect | cell apoptosis (sub-G1 percentage), compound alone [7]: increased the percentage of sub-G1 cells | cell proliferation ([3H] thymidine incorporation), compound alone [8]: anti-proliferative effect
